Measurements published in US20190048052A1, “ANTI-MICROBIAL PEPTIDES AND COATINGS” (Board of Regents of the University of Nebraska, priority 2016, published 2019).
Values after ≈ are worked out from the molar mass of the structure shown. Like-named read-outs stand apart in the source and are kept apart here. Residues, ends and D or L forms follow the SMILES beside them.

Key:
[1] = system: S. aureus USA300; type: cell-based, Staphylococcus aureus; details: for loss in activity compared to the WT: MRSA USA300
Protocol: (§1) The antimicrobial activity of peptides was evaluated using a standard broth microdilution protocol. In brief, exponential phase bacteria at 10^6 CFU were incubated with serially diluted peptides overnight for ˜20 hours at 37° C. The plates were read on a ChroMate® 4300 Microplate Reader at 630 nm (GMI, Ramsey, Minn.).

[2] = system: E. coli ATCC 25922; type: cell-based, Escherichia coli; details: ATCC 25922, 20 h
Protocol: as §1

[3] = system: human red blood cells; assay: Hemolytic ability (Example 3); type: cell-based; details: concentration that causes 50% hemolysis
Protocol: Hemolytic analysis of selected peptides was performed using an established protocol. Briefly, human blood cells (UNMC Blood Bank) were washed three times with phosphate buffer saline (PBS) and diluted to a 2% solution. After peptide treatment, incubation at 37° C. for one hour, and centrifugation at 13,000 rpm, aliquots of the supernatant were transferred to a fresh 96-well microplate. To assess peptide cytotoxicity, the amount of hemoglobin released was measured at 545 nm. The percent lysis was calculated by assuming 100% release when human blood cells were treated with 1% TRITON™ X-100, and 0% release when incubated with PBS buffer.

[4] = system: S. aureus USA300; type: cell-based, Staphylococcus aureus
Protocol: Two types of experiments were conducted to evaluate the anti-biofilm activity of these peptides against S. aureus USA300 grown under a static condition for 24 hours to form established biofilms in presence of tryptic soy broth (TSB). The experiment was set up using a flat bottom, 96-well, polystyrene microtiter plates (Corning, COSTAR). In short, S. aureus USA300 (10^5 CFU/mL) in fresh TSB media was made from an exponentially growing culture. 200 μL of this bacterial culture was added to each well of the microtiter plates. The plates are then incubated at 37° C. for 24 hours to allow biofilm formation. Media was then carefully removed followed by washing with sterile 1×PBS to remove any unattached bacteria. Solution containing μL of 10× peptide solution and 180 μL of fresh TSB were added. The plates were again incubated at 37° C. for another 24 hours. To measure the extent of biofilm disruption by the peptides as a function of biofilm reduction, crystal violet staining was performed. Media was pipetted out and the wells were carefully washed with 200 μL of PBS to remove the loosely attached cells. Subsequently, 200 μL of 99% methanol was added for fixation and the plates were allowed to sit for 15 minutes. The plates were finally aspirated and dried. Lastly, staining was done with 200 μL of 1% crystal violet in water for 5 minutes. Excess stain was gently rinsed off with tap water, and plates were air-dried. Further, stains were solubilized in 200 μL of 33% glacial acetic acid followed by colorimetric measurement at 600 nm on a Chromate® microtiter plate reader. The amounts of biofilm growth with and without compound treatments were calculated.
In addition, live cell contents of the peptide acted biofilms was estimated by XTT [2,3-bis(2-methyloxy-4-nitro-5-sulfophenyl)-2H-tertazolium-5-carboxanilide]assay by following the manufacturer's instructions with modifications. A 10% XTT solution in TSB media was added to each well and the plates were again incubated for 2 hours at 37° C. Absorbance at 450 nm (only media with XTT containing wells served as the blank) was obtained using Chromate® microtiter plate reader. Percentage of biofilm reduction for the peptide was plotted assuming 100% biofilm growth is achieved on the bacterial wells without peptide treatment.

[5] = system: S. aureus USA300; assay: Propidium iodide membrane permeation; type: cell-based, Staphylococcus aureus
Protocol: Fluorescence spectroscopy was also used to follow bacterial killing. In brief, a serially diluted 10× peptide (10 μL) was made in 96-well coming COSTAR microtiter plates. Propidium iodide (2 μL) was added at 50 μM to each well which was finally incubated with S. aureus USA300 bacteria (88 μL at a final OD600 ˜0.1) with continuous shaking at 100 rpm, 37° C. in a FLUOstar® Omega (BMG LABTECH Inc, NC) microplate reader. The plates were read every 5 minutes for a total duration of 2 hours with excitation and emission wavelengths at 584 nm and 620 nm respectively. Plots were made using averaged readings from duplicated experiments after subtraction of the media control.

[6] = system: E. coli K12; type: cell-based, Escherichia coli; details: K12
Protocol: (§2) The bacterial strains used here included Gram-positive bacteria Staphylococcus aureus USA300 LAC, Staphylococcus epidermidis 1457, Bacillus subtilis 168, and Gram-negative Escherichia coli K12. Clinical strains of S. aureus, including Mu50, UAMS-1 and Newman, were also evaluated.
(§3) The antimicrobial activity of peptides was evaluated using a standard broth microdilution protocol (Wang, G. (2008) J. Biol. Chem., 283:32637-32643). In brief, exponential phase bacteria at 10^6 CFU were incubated with serially diluted peptides overnight for ˜20 hours at 37° C. The plates were read on a ChroMate® 4300 Microplate Reader at 630 nm (GMI, Ramsey, Minn.). […] In addition, the effects of human serum (up to 10%), pH (6.8, 7.4 and 8.0) and 150 mM sodium chloride (NaCl) on MICs against S. aureus USA300 were also evaluated (Mishra et al. (2015) RSC Advances 5:59758-59769).

[7] = system: S. epidermidis 1457; type: cell-based, Staphylococcus epidermidis
Protocol: as §2, §3

[8] = system: B. subtilis 168; type: cell-based, Bacillus subtilis
Protocol: as §2, §3

[9] = system: S. aureus USA300; type: cell-based, Staphylococcus aureus; remark: listed apart in the source
Protocol: as §2, §3

[10] = system: S. aureus USA300; type: cell-based, Staphylococcus aureus; details: USA300
Protocol: The minimal bactericidal concentration (MBC) was determined by plating 50 μl of the content in the clear wells of the above MIC assays. MBC was determined on the petri dishes without bacterial colony formation after overnight growth (Wang et al. (2012) Biochemistry 51:653-664).

SMILES | loss in activity compared to the WT [1] | S. aureus (MIC) ([1]; S. aureus USA300) | E. coli (MIC) [2] | HL50 [3] | other results
CC[C@H](C)[C@H](NC(=O)[C@H](CCCNC(=N)N)NC(=O)[C@H](CCCNC(=N)N)NC(=O)[C@H](CC(C)C)NC(=O)[C@H](Cc1c[nH]c2ccccc12)NC(=O)[C@H](Cc1c[nH]c2ccccc12)NC(=O)[C@@H](N)CCCNC(=N)N)C(=O)N[C@@H](Cc1c[nH]c2ccccc12)C(N)=O [Peptide W1R, RWWLRRIW] (H-RWWLRRIW-NH2; N-terminus assumed) | four-fold | 12.5 µM | 25 µM | >200 µM | killing in preformed biofilms (XTT) ([4]; 25 μM): neither W1R nor W3R was able to kill
CC[C@H](C)[C@H](NC(=O)[C@H](CCCNC(=N)N)NC(=O)[C@H](CCCNC(=N)N)NC(=O)[C@H](CC(C)C)NC(=O)[C@H](Cc1c[nH]c2ccccc12)NC(=O)[C@H](CCCNC(=N)N)NC(=O)[C@@H](N)Cc1c[nH]c2ccccc12)C(=O)N[C@@H](Cc1c[nH]c2ccccc12)C(N)=O [Peptide W2R, WRWLRRIW] (H-WRWLRRIW-NH2; N-terminus assumed) |  |  | 25 µM | 100 µM | S. aureus (MIC) ([1]; USA300, 20 h): 6.2 µM; killing in preformed biofilms (XTT) ([4]; 12.5 μM): 80%
CN[C@H](CC(C)C)C(=O)N[C@H]1C(=O)N[C@@H](CC(N)=O)C(=O)N[C@H]2C(=O)N[C@H]3C(=O)N[C@H](C(=O)N[C@H](C(=O)O)c4cc(O)cc(O)c4-c4cc3ccc4O)[C@H](O)c3ccc(c(Cl)c3)Oc3cc2cc(c3O[C@@H]2O[C@H](CO)[C@@H](O)[C@H](O)[C@H]2O[C@H]2C[C@](C)(N)[C@H](O)[C@H](C)O2)Oc2ccc(cc2Cl)[C@H]1O [vancomycin, reference compound] |  |  |  |  | propidium iodide fluorescence change after treatment [5]: no increase in fluorescence
CCCCCCCCCC(=O)N[C@@H](Cc1c[nH]c2ccccc12)C(=O)N[C@H](CC(N)=O)C(=O)N[C@@H](CC(=O)O)C(=O)N[C@@H]1C(=O)NCC(=O)N[C@@H](CCCN)C(=O)N[C@@H](CC(=O)O)C(=O)N[C@H](C)C(=O)N[C@@H](CC(=O)O)C(=O)NCC(=O)N[C@H](CO)C(=O)N[C@@H]([C@H](C)CC(=O)O)C(=O)N[C@@H](CC(=O)c2ccccc2N)C(=O)O[C@@H]1C [daptomycin, reference compound] |  |  |  |  | propidium iodide fluorescence change after treatment [5]: rapid increase in fluorescence
CC[C@H](C)[C@H](NC(=O)[C@H](CCCNC(=N)N)NC(=O)[C@H](CCCNC(=N)N)NC(=O)[C@H](CC(C)C)NC(=O)[C@H](Cc1c[nH]c2ccccc12)NC(=O)[C@H](Cc1c[nH]c2ccccc12)NC(=O)[C@@H](N)Cc1c[nH]c2ccccc12)C(=O)N[C@@H](CCCNC(=N)N)C(N)=O [Peptide W8R, WWWLRRIR] (H-WWWLRRIR-NH2; N-terminus assumed) | four-fold | 12.5 µM | 25 µM | >200 µM | killing in preformed biofilms (XTT) ([4]; 12.5 μM): 20%
CC[C@H](C)[C@H](NC(=O)[C@H](CCCNC(=N)N)NC(=O)[C@H](CCCNC(=N)N)NC(=O)[C@H](CC(C)C)NC(=O)[C@H](CCCNC(=N)N)NC(=O)[C@H](Cc1c[nH]c2ccccc12)NC(=O)[C@@H](N)Cc1c[nH]c2ccccc12)C(=O)N[C@@H](Cc1c[nH]c2ccccc12)C(N)=O [Peptide W3R, WWRLRRIW] (H-WWRLRRIW-NH2; N-terminus assumed) | four-fold | 12.5 µM | 25 µM | >200 µM | killing in preformed biofilms (XTT) ([4]; 25 μM): neither W1R nor W3R was able to kill
CC[C@H](C)[C@H](NC(=O)[C@H](CCCNC(=N)N)NC(=O)[C@H](CO)NC(=O)[C@H](CC(C)C)NC(=O)[C@H](Cc1c[nH]c2ccccc12)NC(=O)[C@H](Cc1c[nH]c2ccccc12)NC(=O)[C@@H](N)Cc1c[nH]c2ccccc12)C(=O)N[C@@H](Cc1c[nH]c2ccccc12)C(N)=O [TetraF2W, WWWLSRIW] (H-WWWLSRIW-NH2; N-terminus and C-terminus assumed) |  |  |  |  | MIC E. coli K12 [6]: >100 µM; MIC S. epidermidis 1457 [7]: >50 µM; MIC B. subtilis 168 [8]: 6.2 µM (≈ 7.64 µg/mL); fold more potent than temporin-SHf (anti-MRSA) ([9]; S. aureus USA300): 4-8 fold; MIC S. aureus USA300 ([9]; USA300): 3.1 to 6.2 µM; MBC S. aureus USA300 [10]: 6.2 µM (≈ 7.64 µg/mL)
